Laboratory results as given in ChEMBL document CHEMBL1201861, “Genomics of Drug Sensitity in Cancer screening data, Wellcome Trust Sanger Institute”.

Legend:
Assay in all cases: cells
DMS-114 = assay type: functional, cell-based, Homo sapiens; conditions: Homo sapiens, DMS-114
A704 = assay type: functional, cell-based, Homo sapiens; conditions: Homo sapiens, A704;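 note: growth inhibition of human A704 cells, read out with a cell viability assay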
Description: SANGER: Inhibition of human A704 cell growth in a cell viability assay.

NCI-H23 = assay type: functional, cell-based, Homo sapiens; conditions: Homo sapiens, NCI-H23;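 note: cell viability assay measuring growth inhibition of NCI-H23 cells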
Description: SANGER: Inhibition of human NCI-H23 cell growth in a cell viability assay.

SK-MEL-1 = assay type: functional, cell-based, Homo sapiens; conditions: Homo sapiens, SK-MEL-1;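 note: growth inhibition of human SK-MEL-1 cells, read out by a cell viability assay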
Description: SANGER: Inhibition of human SK-MEL-1 cell growth in a cell viability assay.

EW-3 = assay type: functional, cell-based, Homo sapiens; conditions: Homo sapiens, EW-3;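 note: cell viability assay read-out, IC50 reflects inhibition of growth of the EW-3 cells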
Description: SANGER: Inhibition of human EW-3 cell growth in a cell viability assay.

HuTu80 = assay type: functional, cell-based, Homo sapiens, HUTU-80; conditions: Homo sapiens, HuTu80;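 note: growth inhibition of HuTu80 human cells, determined with a cell viability readout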
Description: SANGER: Inhibition of human HUTU-80 cell growth in a cell viability assay.

HT = assay type: functional, cell-based, Homo sapiens; conditions: Homo sapiens, HT
Description: SANGER: Inhibition of human HT cell growth in a cell viability assay.

D-502MG = assay type: functional, cell-based, Homo sapiens; conditions: Homo sapiens, D-502MG
Description: SANGER: Inhibition of human D-502MG cell growth in a cell viability assay.

CAS-1 = assay type: functional, cell-based, Homo sapiens; conditions: Homo sapiens, CAS-1;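 note: growth inhibition of CAS-1 cells, measured with a cell viability assay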
Description: SANGER: Inhibition of human CAS-1 cell growth in a cell viability assay.

GT3TKB = assay type: functional, cell-based, Homo sapiens; conditions: Homo sapiens, GT3TKB;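 note: growth inhibition of the cell line, read out with a cell viability assay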
Description: SANGER: Inhibition of human GT3TKB cell growth in a cell viability assay.

SW 954 = assay type: functional, cell-based, Homo sapiens; conditions: Homo sapiens, SW 954;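 note: growth inhibition of SW954 human cancer cells, read out as cell viability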
Description: SANGER: Inhibition of human SW954 cell growth in a cell viability assay.

MEG-01 = assay type: functional, cell-based, Homo sapiens; conditions: Homo sapiens, MEG-01;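 note: growth inhibition of MEG-01 cells, read out by a cell viability assay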
Description: SANGER: Inhibition of human MEG-01 cell growth in a cell viability assay.

ES3 = assay type: functional, cell-based, Homo sapiens; conditions: Homo sapiens, ES3;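 note: growth inhibition of ES3 cells, read out with a cell viability assay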
Description: SANGER: Inhibition of human ES3 cell growth in a cell viability assay.

Mo = assay type: functional, cell-based, Homo sapiens; conditions: Homo sapiens, Mo
Description: SANGER: Inhibition of human Mo-T cell growth in a cell viability assay.

KMOE-2 = assay type: functional, cell-based, Homo sapiens; conditions: Homo sapiens, KMOE-2;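 note: growth inhibition of human KMOE-2 cells, read out with a cell viability assay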
Description: SANGER: Inhibition of human KMOE-2 cell growth in a cell viability assay.

Ramos-2G6-4C10 = assay type: functional, cell-based, Homo sapiens; conditions: Homo sapiens, Ramos-2G6-4C10;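 note: growth inhibition of the cell line, measured by a cell viability read-out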
Description: SANGER: Inhibition of human Ramos-2G6-4C10 cell growth in a cell viability assay.

NCI-H1155 = assay type: functional, cell-based, Homo sapiens; conditions: Homo sapiens, NCI-H1155;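 note: cell growth inhibition measured by a viability assay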
Description: SANGER: Inhibition of human NCI-H1155 cell growth in a cell viability assay.

HAL-01 = assay type: functional, cell-based, Homo sapiens; conditions: Homo sapiens, HAL-01;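 note: growth inhibition of human HAL-01 cells, read out with a cell viability assay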
Description: SANGER: Inhibition of human HAL-01 cell growth in a cell viability assay.

SNU-C2B = assay type: functional, cell-based, Homo sapiens; conditions: Homo sapiens, SNU-C2B;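 note: cell viability readout used to measure compound-driven suppression of SNU-C2B cell proliferation, IC50 marking half-maximal growth inhibition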
Description: SANGER: Inhibition of human SNU-C2B cell growth in a cell viability assay.

BE-13 = assay type: functional, cell-based, Homo sapiens; conditions: Homo sapiens, BE-13;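 note: growth inhibition of human BE-13 cells, measured with a cell viability assay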
Description: SANGER: Inhibition of human BE-13 cell growth in a cell viability assay.

LB996-RCC = assay type: functional, cell-based, Homo sapiens; conditions: Homo sapiens, LB996-RCC
Description: SANGER: Inhibition of human LB996-RCC cell growth in a cell viability assay.

GR-ST = assay type: functional, cell-based, Homo sapiens; conditions: Homo sapiens, GR-ST
Description: SANGER: Inhibition of human GR-ST cell growth in a cell viability assay.

MC116 = assay type: functional, cell-based, Homo sapiens; conditions: Homo sapiens, MC116;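 note: growth inhibition of MC116 cells, read out with a cell viability assay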
Description: SANGER: Inhibition of human MC116 cell growth in a cell viability assay.

LB2241-RCC = assay type: functional, cell-based, Homo sapiens; conditions: Homo sapiens, LB2241-RCC;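 note: cell viability assay measuring how strongly the cultured human renal carcinoma line is prevented from growing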
Description: SANGER: Inhibition of human LB2241-RCC cell growth in a cell viability assay.

LB2518-MEL = assay type: functional, cell-based, Homo sapiens; conditions: Homo sapiens, LB2518-MEL;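 note: growth inhibition of human LB2518-MEL cells, measured with a cell viability assay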
Description: SANGER: Inhibition of human LB2518-MEL cell growth in a cell viability assay.

SH-4 = assay type: functional, cell-based, Homo sapiens; conditions: Homo sapiens, SH-4;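 note: growth inhibition of SH-4 cells, read out with a cell viability assay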
Description: SANGER: Inhibition of human SH-4 cell growth in a cell viability assay.

LXF-289 cell line = assay type: functional, cell-based, Homo sapiens; conditions: Homo sapiens, LXF-289
Description: SANGER: Inhibition of human LXF-289 cell growth in a cell viability assay.

U-266 = assay type: functional, cell-based, Homo sapiens; conditions: Homo sapiens, U-266
Description: SANGER: Inhibition of human U-266 cell growth in a cell viability assay.

TE-1 = assay type: functional, cell-based, Homo sapiens; conditions: Homo sapiens, TE-1;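 note: growth inhibition of the human TE-1 cell line, read out with a cell viability assay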
Description: SANGER: Inhibition of human TE-1 cell growth in a cell viability assay.

SK-NEP-1 = assay type: functional, cell-based, Homo sapiens; conditions: Homo sapiens, SK-NEP-1;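 note: growth inhibition of human SK-NEP-1 cells, read out by a cell viability assay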
Description: SANGER: Inhibition of human SK-NEP-1 cell growth in a cell viability assay.

A4-Fuk = assay type: functional, cell-based, Homo sapiens; conditions: Homo sapiens, A4-Fuk;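 note: growth inhibition of A4-Fuk cells, read out by a cell viability assay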
Description: SANGER: Inhibition of human A4-Fuk cell growth in a cell viability assay.

MOLT-4 = assay type: functional, cell-based, Homo sapiens; conditions: Homo sapiens, MOLT-4;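 note: growth inhibition of MOLT-4 cells, determined with a cell viability readout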
Description: SANGER: Inhibition of human MOLT-4 cell growth in a cell viability assay.

MLMA = assay type: functional, cell-based, Homo sapiens; conditions: Homo sapiens, MLMA;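 note: growth inhibition of MLMA cells (human), determined through a cell viability readout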
Description: SANGER: Inhibition of human MLMA cell growth in a cell viability assay.

BB65-RCC = assay type: functional, cell-based, Homo sapiens; conditions: Homo sapiens, BB65-RCC;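 note: growth inhibition of the cell line, measured with a cell viability assay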
Description: SANGER: Inhibition of human BB65-RCC cell growth in a cell viability assay.

MV4-11 = assay type: functional, cell-based, Homo sapiens, MV-4-11; conditions: Homo sapiens, MV4-11;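 note: cell viability readout measuring growth inhibition of human MV-4-11 cells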
Description: SANGER: Inhibition of human MV-4-11 cell growth in a cell viability assay.

EM-2 = assay type: functional, cell-based, Homo sapiens; conditions: Homo sapiens, EM-2;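 note: growth inhibition of EM-2 cells, read out with a cell viability assay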
Description: SANGER: Inhibition of human EM-2 cell growth in a cell viability assay.

SF-539 = assay type: functional, cell-based, Homo sapiens; conditions: Homo sapiens, SF-539;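 note: Read-out is a cell viability assay, with IC50 reflecting inhibition of cell growth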
Description: SANGER: Inhibition of human SF539 cell growth in a cell viability assay.

SK-PN-DW = assay type: functional, cell-based, Homo sapiens; conditions: Homo sapiens, SK-PN-DW;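 note: growth inhibition measured with a viability assay on these cells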
Description: SANGER: Inhibition of human SK-PN-DW cell growth in a cell viability assay.

OS-RC-2 = assay type: functional, cell-based, Homo sapiens; conditions: Homo sapiens, OS-RC-2;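 note: growth inhibition of human OS-RC-2 cells, measured by a cell viability assay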
Description: SANGER: Inhibition of human OS-RC-2 cell growth in a cell viability assay.

697 = assay type: functional, cell-based, Homo sapiens; conditions: Homo sapiens
Description: SANGER: Inhibition of human 697 cell growth in a cell viability assay.

LB1047-RCC = assay type: functional, cell-based, Homo sapiens; conditions: Homo sapiens, LB1047-RCC;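 note: inhibition of cell growth, determined with a cell viability assay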
Description: SANGER: Inhibition of human LB1047-RCC cell growth in a cell viability assay.

LU-134-A = assay type: functional, cell-based, Homo sapiens; conditions: Homo sapiens, LU-134-A
Description: SANGER: Inhibition of human LU-134-A cell growth in a cell viability assay.

RH-1 = assay type: functional, cell-based, Homo sapiens; conditions: Homo sapiens, RH-1;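 note: growth inhibition of human RH-1 cells, read out with a cell viability assay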
Description: SANGER: Inhibition of human RH-1 cell growth in a cell viability assay.

OCI-AML2 = assay type: functional, cell-based, Homo sapiens; conditions: Homo sapiens, OCI-AML2;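 note: growth inhibition of OCI-AML2 cells, read out with a cell viability assay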
Description: SANGER: Inhibition of human OCI-AML2 cell growth in a cell viability assay.

NCI-H1770 = assay type: functional, cell-based, Homo sapiens; conditions: Homo sapiens, NCI-H1770;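 note: growth inhibition of NCI-H1770 cells determined with a viability readout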
Description: SANGER: Inhibition of human NCI-H1770 cell growth in a cell viability assay.

RXF 393 = assay type: functional, cell-based, Homo sapiens; conditions: Homo sapiens, RXF 393;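 note: growth inhibition of human RXF 393 cells, read out with a cell viability assay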
Description: SANGER: Inhibition of human RXF393 cell growth in a cell viability assay.

LS-1034 = assay type: functional, cell-based, Homo sapiens; conditions: Homo sapiens, LS-1034
Description: SANGER: Inhibition of human LS-1034 cell growth in a cell viability assay.

HCE-T = assay type: functional, cell-based, Homo sapiens; conditions: Homo sapiens, HCE-T;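 note: cell viability assay read-out, reporting inhibition of HCE-T cell growth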
Description: SANGER: Inhibition of human HCE-T cell growth in a cell viability assay.

A498 = assay type: functional, cell-based, Homo sapiens; conditions: Homo sapiens, A498;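 note: growth inhibition of human A498 cells, read out with a cell viability assay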
Description: SANGER: Inhibition of human A498 cell growth in a cell viability assay.

Measured: IC50

COc1cc(-c2nn([C@H]3CC[C@H](N4CCN(C(C)=O)CC4)CC3)c3ncnc(N)c23)ccc1NC(=O)c1cc2ccccc2n1C
1.12 µM: RXF 393
0.696 µM: SW 954
5.06 µM: BB65-RCC
5.1 µM: OCI-AML2
2.05 µM: TE-1
0.755 µM: OS-RC-2
1.5 µM: HuTu80
0.0746 µM: LB996-RCC
0.169 µM: MEG-01
0.913 µM: SH-4
0.856 µM: MC116
0.209 µM: MLMA
3.08 µM: HAL-01
1.15 µM: A704
0.337 µM: EM-2
0.143 µM: LB1047-RCC
0.757 µM: LXF-289 cell line
1.73 µM: 697
> 5.12 µM: all other assays above

OCCCNc1cc(-c2ccnc(Nc3cccc(Cl)c3)n2)ccn1
0.028 µM: A4-Fuk
0.0829 µM: OS-RC-2
0.104 µM: SNU-C2B
0.0325 µM: LB996-RCC
0.0431 µM: MV4-11
0.164 µM: LXF-289 cell line
0.066 µM: HAL-01
0.0284 µM: LB1047-RCC
0.0809 µM: SK-NEP-1
0.174 µM: GR-ST
0.037 µM: RXF 393
0.0626 µM: OCI-AML2
0.176 µM: EM-2
0.17 µM: SW 954
0.123 µM: LU-134-A
0.0902 µM: SK-PN-DW
0.126 µM: MEG-01
0.0574 µM: MLMA
0.0407 µM: MC116
0.059 µM: GT3TKB
0.0662 µM: HT
0.0197 µM: 697
0.0593 µM: Ramos-2G6-4C10
0.0473 µM: HCE-T
0.255 µM: LS-1034
0.0769 µM: BE-13
0.245 µM: NCI-H23
0.0202 µM: HuTu80
0.0601 µM: BB65-RCC
> 0.256 µM: all other assays above

Oc1ccc2ccccc2c1SSc1c(O)ccc2ccccc12
9.16 µM: MV4-11
11 µM: GR-ST
11.4 µM: ES3
14 µM: MOLT-4
29.5 µM: EW-3
29.2 µM: MLMA
9.44 µM: A4-Fuk
25.8 µM: HAL-01
8.06 µM: OCI-AML2
28 µM: LB2241-RCC
27.9 µM: SK-PN-DW
27.8 µM: RH-1
> 32 µM: all other assays above

Cc1ccc(-c2c(C(=O)CCl)n(CCCO)c3ncnc(N)c23)cc1
0.699 µM: LB2241-RCC
0.293 µM: 697
> 4 µM: all other assays above

C=C(c1ccc(C(=O)O)cc1)c1cc2c(cc1C)C(C)(C)CCC2(C)C [BEXAROTENE]
0.453 µM: MV4-11
5.31 µM: SH-4
> 8 µM: all other assays above
